In series [1] the test system is ricinus oil-induced diarrhea. The conditions noted are these: in vivo; for effect on ricinus oil-induced diarrhea: sc.
In series [2] the test system is opioid-induced PCO2 increases. The conditions noted are these: rat, in vivo, sc.
For the next series, the system named is morphine-induced emesis. The experiment in a line: Inhibition of morphine-induced emesis in ferrets.
Series [3] deals with ricinus oil-induced diarrhea. The conditions noted are these: rat, in vivo.
Series [4] deals with ricinus oil-induced diarrhea. The experiment in a line: whole plant or invertebrate. The conditions noted are these: in Meriones unguiculatus, sc, 8 h, read-out: ED50 of the opioid to postpone the ricinus oil-induced diarrhea.
The subject of series [5] is opioid-induced PCO2 increases. The conditions noted are these: guinea pig, in vivo.
For series [6], the system named is charcoal propulsion. Set-up: species or system rats. The conditions noted are these: rat, in vivo.
Series [7] concerns acetone-induced lifting behaviour. Briefly: Tolerance in a chronic neuropathic pain model (CCI gerbils, acetone spray test). Format: in vivo.
In series [8] the test system is opioid-induced PCO2 increases. The conditions noted are these: in vivo.
In series [9] the test system is charcoal propulsion. The conditions noted are these: in vivo.

Data on four molecules can be found in patent US20080070924A1 (priority 2003, published 2008).

Where two headings read alike, the source gives them in different places.

Turning to `COc1ccc2c3c1O[C@H]1[C@@H](O)C=C[C@H]4[C@@H](C2)N(C)CC[C@@]341` [Codeine, codeine], in series [1], the “effect on ricinus oil-induced diarrhea” value is given as “dose-dependent inhibition”.

For orientation: ED50 means the dose at which the effect has come halfway, by size or by number of responders. As for `CN1CC[C@]23c4c5ccc(O)c4O[C@H]2[C@@H](O)C=C[C@H]3[C@H]1C5` [Morphine, morphine], the PCO2 after opioid entry in series [2] is “increased levels of PCO2”; in series [5] (sc), “increase in PCO2”. The “doses causing central side-effects” value in the series on morphine-induced emesis (i.p.) was more than 0.8 mg/kg. The “emesis on increasing the dose from 0.4 to 0.8 mg/kg” value in the series on morphine-induced emesis (i.p.) was “more animals with emesis and increased frequencies of periods of emesis, retches and vomiting”. Besides, the “effect on ricinus oil-induced diarrhea” value in [3] (sc) and in series [1] was “dose-dependent inhibition” each time. Also, in [4], the ED50 amounted to 0.72 mg/kg. Further, in the series on charcoal propulsion [6], the “charcoal test result in rats compared with gerbils” value was “comparable results”. In series [7] (2.5 mg/kg i.p. twice daily), the “acetone-induced lifting behaviour, acute effect” value is given as “acutely reduced”. Besides, in series [7] (2.5 mg/kg i.p. twice daily, reductions of activity from the second day onwards), the “acetone-induced lifting behaviour at day 7” value is “no differences with the controls”.

On to `COc1ccc2c3c1O[C@H]1C(=O)CC[C@@]4(O)[C@@H](C2)N(C)CC[C@]314` [Oxycodone, oxycodone], for which the ED50 in series [4] is 5.02 mg/kg. Moreover, the “effect on ricinus oil-induced diarrhea” value in series [1] is listed as “dose-dependent inhibition”.

“(+)-(B)-trans-4-[1-[3,5-bis(trifluoromethyl)benzoyl]-2-(phenylmethyl)-4-piperidinyl]-N-(2,6-dimethylphenyl)-1-piperazine acetamide (L)-malic acid (1:1) [Compound 95]”: in series [2] (40 mg/kg), the “effect on PCO2, given alone” value is recorded as “did not affect the PCO2 levels”; the “effect on opioid-induced increases in PCO2” value is on record as “some attenuation”; the “number of animals reaching high (>50 mm Hg) levels of PCO2” value is reported as “especially reduced”. Further, the “frequency of retches, vomiting and periods of emesis” value with morphine-induced emesis (at 0.4 mg/kg morphine) is listed as “non-significant tendency”. Besides, the “number (frequency) of vomits” value in the series on morphine-induced emesis (at 0.8 mg/kg morphine, 10 mg/kg Compound 95 i.p.) was “diminished significantly”. Also, the number of retches entry in the series on morphine-induced emesis (at 0.8 mg/kg morphine, 10 and 40 mg/kg i.p. Compound 95) was “significantly reduced”. In series [3], the “effect of adding to the opioids on their ED50s” value is listed as “did not alter the ED50s of the opioids” and the “effects on constipation, given alone” value is “minimal effects”. In [8], the “effect on PCO2, given alone” value is listed as “no effects were observed” and the “effect on opioid-induced PCO2 levels” value is given as “significant decreases”. For the same molecule, in series [5], the “effect on PCO2, given alone” value is recorded as “did not affect PCO2 values” and the “effect on opioid-induced PCO2 levels” value is recorded as “reductions in the opioid-induced PCO2 levels”. In the series on charcoal propulsion [9], the “effect of adding to the opioids on charcoal propulsion” value is given as “did not affect the outcome of the opioids” and the “effect on charcoal propulsion, given alone” value is “inactive”. In addition, in the series with charcoal propulsion [6], the “charcoal test result in rats compared with gerbils” value is listed as “comparable results”. Further, in series [1], the “effect of adding to the opioids on their ED50s” value is on record as “did not alter the ED50s of the opioids” and the “effects on constipation, given alone” value is on record as “minimal effects”. Also, the “acetone-induced lifting behaviour, given alone” value in series [7] (2.5 mg/kg i.p. twice daily, 11 days, during some days of the experiment) is recorded as “limited activity”. Besides, the “activity over the testing period, combination with morphine” value in [7] (2.5 mg/kg morphine with 2.5 mg/kg Compound 95 i.p. twice daily, 11 days) was “the activity remained present over the entire testing period”.
